# Data taken from PubChem BioAssay AID1963845 (Molecular Pharmacology Branch, DTP, NCI, 2024).
# Test system: 429239-143-T-J1-PDC complex spheroid viability
# Experiment: Anticancer human tumor 429239-143-T-J1-PDC patient-derived small cell lung carcinoma cell line growth inhibition [POLQ]
# Settings: for IC50: curve of first compound; for viability, T/C: stronger effect = lower value
# Description: Multicellular complex tumor spheroid response to Polymerase (POL) inhibitors (novobiocin, ART-558, RP6685) in combination with a variety of drugs and investigational agents in selected tumor cell lines
# The POL inhibitors (novobiocin, ART-558, and RP6685) were evaluated both individually and in combination with standard of care and investigational anticancer small molecules within a complex spheroid model of solid tumors. . Complex spheroids include a stromal component modeled by human endothelial cells (HUVEC) and fibroblasts modeled by human mesenchymal stem cells (MSCs). The concentration ranges selected for each drug and investigational agent were based upon clinically achievable concentrations if the clinical Cmax of the agent was known.
# Compounds. The drugs and investigational agents: novobiocin (NSC847541), ART-558 (NSC835418), RP-6685 (NSC848927), peposertib (NSC802822), ceralasertib (NSC780249), elimusertib (NSC800525), camonsertib (NSC841442), AZD-1390 (NSC803789), olaparib (NSC753686), talazoparib (NSC767125), rucaparib (NSC756644), sotorasib (NSC818433), MRTX-1133 (NSC836407), SN-38 (NSC673596), topotecan (NSC609699), epotoside (NSC141540), doxorubicin (NSC123127), gemcitabine (NSC613327), 5-fluorouracil (NSC19893), paclitaxel (NSC125973), vemurafenib (NSC761431), MSA-2 (NSC828583), SN-011 (NSC837082), adavosertib (NSC754352), prexasertib (NSC758257), carboplatin (NSC241240) and oxaliplatin (NSC266046), were obtained from the National Cancer Institute (NCI) Developmental Therapeutics Program Chemical Repository (21). The FDA-approved anticancer drug set is available from the Developmental Therapeutics Program at https://dtp.cancer.gov/organization/dscb/obtaining/. […] The stock solutions were prepared in dimethyl sulfoxide (DMSO, Sigma-Aldrich, St. Louis, MO, cat. D2650), except for the platinum compounds which were prepared in saline (Quality Biological, Gaithersburg, MD, cat. 114-055-101), at 800-fold the tested concentration and stored at -70 degrees C prior to their use. All drugs and investigational agents were tested over a range starting from a high concentration at or near the clinical Cmax and decreasing in half-log increments. If the clinical Cmax for an agent had not been determined, the highest concentration tested was 10 microM, except for SN-38, which was tested at a high concentration of 1 microM.
# Cell Culture. All cells were maintained in an incubator at 37 degrees C and 5% CO2 with 95% humidity. The PDC lines were cultured according to standard operating procedures established by the NCI PDMR (https://pdmr.cancer.gov). Table 3 of the manuscript, lists the cell lines along with the number of the three cell types plated to form the mct-spheroids and media for tumor cell growth. After thawing, all PDC lines, except 997537-175-T-J1-PDC and 415267-285-R-J2-PDC, were cultured in Matrigel-coated flasks prepared with a working solution of 1X Ham's F-12 nutrient mix, without supplementation (Thermo Fisher Scientific, cat. 11765054), 100 U/mL penicillin-streptomycin (Thermo Fisher Scientific, cat. 15140122), and 2.5% Matrigel (Corning Inc., Corning, NY, cat. 354248) for the first three passages. The two PDC lines 997537-175-T-J1-PDC and 415267-285-R-J2-PDC were cultured on uncoated flasks. The 857933-349-R-J2-PDC line was cultured in 6C/Colon 1B media containing advanced DMEM/F-12 (Thermo Fisher Scientific, cat. 12634028), 10 mM HEPES (Thermo Fisher Scientific, cat. 15630080), 1X GlutaMAX supplement (Thermo Fisher Scientific, cat. 35050061), 0.1 mg/mL primocin (InvivoGen, San Diego, CA, cat. ant-pm-2), 10% defined fetal bovine serum, heat inactivated (HyClone Laboratories Inc., Logan, UT, cat. SH30070.03HI), 50% L-WRN conditioned media (ATCC, cat. CRL-3276), 1.25 mM N-Acetyl-L-cysteine (Sigma-Aldrich, cat. A9165), 10 mM nicotinamide (Sigma-Aldrich, cat. N0636), 1X B-27 supplement (Thermo Fisher Scientific, cat. 17504044), 1X N-2 supplement (Thermo Fisher Scientific, cat. […]
# 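Note: luminescence signal used as surrogate measure of viable cells; spheroids exposed to compounds for seven days before readout.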
# 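Throughout, for viability, T/C: 100% = DMSO vehicle control viability as luminescence relative to vehicle.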
compound,measurement,setting,value
COc1cc(C2c3cc4c(cc3C(OC3OC5COC(C)OC5C(O)C3O)C3COC(=O)C23)OCO4)cc(OC)c1O (configuration not stated) + Cc1cccc(N(C)C(=O)C2C(O)CCN2c2nc(C)cc(C(F)(F)F)c2C#N)c1,IC50,second compound 0.0316 µM,377 nM
same,IC50,second compound 0.1 µM,366 nM
same,IC50,second compound 0.316 µM,501 nM
same,IC50,second compound 1 µM,337 nM
same,IC50,second compound 3.16 µM,226 nM
same,IC50,second compound 10 µM,246 nM
same,"viability, T/C","second compound 0.0316 µM, first compound 0.0316 µM",107%
same,"viability, T/C","second compound 0.0316 µM, first compound 0.1 µM",92.9%
same,"viability, T/C","second compound 0.0316 µM, first compound 0.316 µM",56.7%
same,"viability, T/C","second compound 0.0316 µM, first compound 1 µM",19.1%
same,"viability, T/C","second compound 0.0316 µM, first compound 3.16 µM",20.2%
same,"viability, T/C","second compound 0.0316 µM, first compound 10 µM",14.3%
same,"viability, T/C","second compound 0.1 µM, first compound 0.0316 µM",92.4%
same,"viability, T/C","second compound 0.1 µM, first compound 0.1 µM",88%
same,"viability, T/C","second compound 0.1 µM, first compound 0.316 µM",54.4%
same,"viability, T/C","second compound 0.1 µM, first compound 1 µM",19.6%
same,"viability, T/C","second compound 0.1 µM, first compound 3.16 µM",16.6%
same,"viability, T/C","second compound 0.1 µM, first compound 10 µM",14.1%
same,"viability, T/C","second compound 0.316 µM, first compound 0.0316 µM",92.3%
same,"viability, T/C","second compound 0.316 µM, first compound 0.1 µM",90.1%
same,"viability, T/C","second compound 0.316 µM, first compound 0.316 µM",69.2%
same,"viability, T/C","second compound 0.316 µM, first compound 1 µM",21.1%
same,"viability, T/C","second compound 0.316 µM, first compound 3.16 µM",17.4%
same,"viability, T/C","second compound 0.316 µM, first compound 10 µM",15.9%
same,"viability, T/C","second compound 1 µM, first compound 0.0316 µM",85.5%
same,"viability, T/C","second compound 1 µM, first compound 0.1 µM",83.3%
same,"viability, T/C","second compound 1 µM, first compound 0.316 µM",52%
same,"viability, T/C","second compound 1 µM, first compound 1 µM",17.4%
same,"viability, T/C","second compound 1 µM, first compound 3.16 µM",16.1%
same,"viability, T/C","second compound 1 µM, first compound 10 µM",15.9%
same,"viability, T/C","second compound 3.16 µM, first compound 0.0316 µM",82.8%
same,"viability, T/C","second compound 3.16 µM, first compound 0.1 µM",77.4%
same,"viability, T/C","second compound 3.16 µM, first compound 0.316 µM",38.8%
same,"viability, T/C","second compound 3.16 µM, first compound 1 µM",15.2%
same,"viability, T/C","second compound 3.16 µM, first compound 3.16 µM",19.5%
same,"viability, T/C","second compound 3.16 µM, first compound 10 µM",16.6%
same,"viability, T/C","second compound 10 µM, first compound 0.0316 µM",94.6%
same,"viability, T/C","second compound 10 µM, first compound 0.1 µM",74.8%
same,"viability, T/C","second compound 10 µM, first compound 0.316 µM",44.6%
same,"viability, T/C","second compound 10 µM, first compound 1 µM",20.7%
same,"viability, T/C","second compound 10 µM, first compound 3.16 µM",21.2%
same,"viability, T/C","second compound 10 µM, first compound 10 µM",18.2%
